Measured values published in ChEMBL document CHEMBL1201862, “PubChem BioAssay data set” (2004).
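Exposure lasted 48 hours, with cells grown in 96-well plates and compounds tested at five concentrations. At the GI50, growth is halved.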 The source made the active and inactive calls. No stated cut-off is given here; in the data, active = GI50 up to about 1.1 µM and inactive = higher.

Experiments:
Experiment in all cases: inhibition of tumour cell growth, NCI panel, 48 h
SK-MEL-5 = system: SK-MEL-5
RPMI-8226 = system: RPMI-8226
HOP-92 = system: HOP-92
MCF7 = system: MCF7
T47D = system: T47D
COLO 205 = system: COLO 205
IGROV-1 = system: IGROV-1
OVCAR-4 = system: OVCAR-4
SK-OV-3 = system: SK-OV-3
DU-145 = system: DU-145
BT-549 = system: BT-549
SF-295 = system: SF-295
SN12C = system: SN12C
A498 = system: A498
LOX IMVI = system: LOX IMVI
SF-539 = system: SF-539
KM12 = system: KM12
CCRF-CEM = system: CCRF-CEM
Hs-578T = system: Hs-578T

SMILES | GI50 (SK-MEL-5) | GI50 (RPMI-8226) | GI50 (HOP-92) | GI50 (MCF7) | GI50 (T47D) | GI50 (COLO 205) | GI50 (IGROV-1) | GI50 (OVCAR-4) | GI50 (SK-OV-3) | GI50 (DU-145) | GI50 (BT-549) | GI50 (SF-295) | GI50 (SN12C) | GI50 (A498) | GI50 (LOX IMVI) | GI50 (SF-539) | GI50 (KM12) | GI50 (CCRF-CEM) | GI50 (Hs-578T)
COC(=O)c1cc2ccc(O)c(O)c2cn1 | 14.2 µM (inactive) | 17.1 µM (inactive) | 12.6 µM (inactive) | 3.56 µM (inactive) | > 10 µM (inactive) | 18.9 µM (inactive) | 17.5 µM (inactive) | 10.1 µM (inactive) | 27.5 µM (inactive) | 67.8 µM (inactive) | > 10 µM (inactive) | 18.2 µM (inactive) | 9.1 µM (inactive) | > 10 µM (inactive) | 1.96 µM (inactive) | 18.7 µM (inactive) | 18.1 µM (inactive) | 1.92 µM (inactive) | 
OC[C@@H](O)[C@H](O)[C@H](O)[C@@H](O)C1SCCCS1 | > 100 µM (inactive) | > 100 µM (inactive) | 17.2 µM (inactive) | > 100 µM (inactive) | > 100 µM (inactive) | > 100 µM (inactive) | > 100 µM (inactive) | > 100 µM (inactive) | > 100 µM (inactive) | > 100 µM (inactive) | > 100 µM (inactive) | > 100 µM (inactive) | > 100 µM (inactive) | > 100 µM (inactive) |  | > 100 µM (inactive) | > 100 µM (inactive) |  | 
CN(C)c1ccc(/N=N/c2ccc3[nH]cnc3c2)cc1 | 30.3 µM (inactive) | 19.5 µM (inactive) |  |  | 29.5 µM (inactive) | 19.3 µM (inactive) | 34.5 µM (inactive) | 24.2 µM (inactive) | > 10 µM (inactive) | 27.4 µM (inactive) | 32.5 µM (inactive) | 24.4 µM (inactive) | 22 µM (inactive) | 20.4 µM (inactive) |  | 17.8 µM (inactive) | 29.2 µM (inactive) | 19.4 µM (inactive) | 34.7 µM (inactive)
COC(=O)/C=c1/c2ccccc2n2nc3ccccc3c12 | 31.6 µM (inactive) | 18.4 µM (inactive) |  | 42.6 µM (inactive) | > 100 µM (inactive) | 27.6 µM (inactive) | > 100 µM (inactive) | 23 µM (inactive) | 16 µM (inactive) | > 100 µM (inactive) | > 100 µM (inactive) | > 100 µM (inactive) | 66.8 µM (inactive) | 26.2 µM (inactive) | 36.9 µM (inactive) | 26.6 µM (inactive) | 27.5 µM (inactive) | 11.4 µM (inactive) | 52 µM (inactive)
CCSc1nnc2c(-c3ccccc3)n[nH]c2n1 | > 100 µM (inactive) | > 100 µM (inactive) | 37.4 µM (inactive) | > 100 µM (inactive) | > 100 µM (inactive) | > 100 µM (inactive) | > 100 µM (inactive) | > 100 µM (inactive) | 44.3 µM (inactive) | > 100 µM (inactive) | > 100 µM (inactive) | 31 µM (inactive) |  |  | > 100 µM (inactive) | 90.8 µM (inactive) | > 100 µM (inactive) | 24.3 µM (inactive) | 30.4 µM (inactive)
O=C(c1ccccc1)N1CCC(CC2(c3cc4ccccc4[nH]3)OCCO2)CC1 | 19.7 µM (inactive) | 2.52 µM (inactive) | 21.2 µM (inactive) | 19.4 µM (inactive) | 41.4 µM (inactive) | 21.2 µM (inactive) | 42.2 µM (inactive) | 47.3 µM (inactive) | 56.8 µM (inactive) | > 100 µM (inactive) | 52.5 µM (inactive) | 39.4 µM (inactive) | > 100 µM (inactive) | 21.4 µM (inactive) | 17.2 µM (inactive) | 37.7 µM (inactive) | 34.2 µM (inactive) | 29.6 µM (inactive) | 
COc1ccc2nc3cc(Cl)ccc3c(NCCCNCCCNc3c4ccc(Cl)cc4nc4ccc(OC)cc34)c2c1 | 0.0247 µM (active) | 0.0826 µM (active) | 0.0719 µM (active) | 0.012 µM (active) | 0.0625 µM (active) | < 0.011 µM (active) | 0.0164 µM (active) | < 0.01 µM (active) | 0.0352 µM (active) | 0.0373 µM (active) | 0.21 µM (active) | < 0.01 µM (active) | < 0.01 µM (active) | 0.0541 µM (active) | < 0.01 µM (active) | 0.0157 µM (active) | 0.0208 µM (active) | < 0.01 µM (active) | 
O=C(CCc1cc(O)cc(O)c1)NCCCNC(=O)CCc1cc(O)cc(O)c1 | > 100 µM (inactive) | > 100 µM (inactive) | > 100 µM (inactive) | > 100 µM (inactive) | > 100 µM (inactive) | > 100 µM (inactive) | > 100 µM (inactive) | > 100 µM (inactive) | > 100 µM (inactive) | > 100 µM (inactive) | > 100 µM (inactive) | > 100 µM (inactive) | > 100 µM (inactive) | > 100 µM (inactive) | > 100 µM (inactive) | > 100 µM (inactive) | > 100 µM (inactive) | > 100 µM (inactive) | 
CC1(C)CN=C(Nc2ccc(F)c(F)c2)S1 | > 100 µM (inactive) | > 100 µM (inactive) | 31.4 µM (inactive) | > 100 µM (inactive) | > 100 µM (inactive) | > 100 µM (inactive) | > 100 µM (inactive) | > 100 µM (inactive) | > 100 µM (inactive) | > 100 µM (inactive) | > 100 µM (inactive) | > 100 µM (inactive) | > 100 µM (inactive) |  | > 100 µM (inactive) | > 100 µM (inactive) | > 100 µM (inactive) | > 100 µM (inactive) | > 100 µM (inactive)
C[C@]12CC[C@@H]3c4ccc(O)cc4CC[C@H]3[C@@H]1C/C(=C\c1ccc(C#N)cc1)C2=O | 19.2 µM (inactive) | 13.3 µM (inactive) | 26.8 µM (inactive) | 45.5 µM (inactive) | 46.8 µM (inactive) | 37.2 µM (inactive) | 46.1 µM (inactive) | 40.5 µM (inactive) | 57 µM (inactive) | 57.4 µM (inactive) | 48.2 µM (inactive) | 71.6 µM (inactive) | 68.4 µM (inactive) | > 100 µM (inactive) | 40.8 µM (inactive) | 36.5 µM (inactive) | 23.1 µM (inactive) | 34.4 µM (inactive) | 
Cc1ccc(-c2cc(C(F)(F)F)nn2-c2ccc(S(N)(=O)=O)cc2)cc1 [CELECOXIB] | 14.8 µM (inactive) | 3.85 µM (inactive) |  | 17.5 µM (inactive) | 16.8 µM (inactive) | 16.1 µM (inactive) | 15.4 µM (inactive) | 12.4 µM (inactive) | 18.3 µM (inactive) | 16.3 µM (inactive) | 18.5 µM (inactive) | 16.6 µM (inactive) | 15.6 µM (inactive) | 15.1 µM (inactive) | 18.2 µM (inactive) | 18.1 µM (inactive) | 15.1 µM (inactive) | 14 µM (inactive) | 18.5 µM (inactive)
C=C[C@]1(C)CC(=O)C(C(C)C=O)[C@]12C(=O)Oc1cccc(C)c1C2=O (stereo partly drawn) | 13.2 µM (inactive) | 8.22 µM (inactive) |  | 16.5 µM (inactive) | 16.4 µM (inactive) | 17.3 µM (inactive) |  | 17.2 µM (inactive) | 16.6 µM (inactive) | 16.8 µM (inactive) | 14.3 µM (inactive) | 15.5 µM (inactive) | 16.3 µM (inactive) | 25.9 µM (inactive) | 14 µM (inactive) | 16.2 µM (inactive) | 14.7 µM (inactive) | 2.26 µM (inactive) | 16.3 µM (inactive)
CC(=O)C(=[N+]=[N-])C(=O)N(C)CCC#N |  | > 10 µM (inactive) | > 10 µM (inactive) | > 10 µM (inactive) | > 10 µM (inactive) |  | > 10 µM (inactive) |  | > 10 µM (inactive) | > 10 µM (inactive) | > 10 µM (inactive) | > 10 µM (inactive) | > 10 µM (inactive) | > 10 µM (inactive) | > 10 µM (inactive) | > 10 µM (inactive) | > 10 µM (inactive) | > 10 µM (inactive) | 
O=C1CCCC(=O)N1n1c(Cc2ccc(Cl)cc2)n[nH]c1=O | > 100 µM (inactive) | > 100 µM (inactive) |  | > 100 µM (inactive) | > 100 µM (inactive) | > 100 µM (inactive) | > 100 µM (inactive) | > 100 µM (inactive) | > 100 µM (inactive) | > 100 µM (inactive) | > 100 µM (inactive) | > 100 µM (inactive) | > 100 µM (inactive) |  | > 100 µM (inactive) | > 100 µM (inactive) | > 100 µM (inactive) | > 100 µM (inactive) | > 100 µM (inactive)
CN1CCN(Cc2cc3c(nn2)-c2ccccc2C3=O)CC1 | 16.9 µM (inactive) | > 100 µM (inactive) | > 100 µM (inactive) | 30.8 µM (inactive) | 49 µM (inactive) | 17.7 µM (inactive) | 38.5 µM (inactive) |  | > 100 µM (inactive) | > 100 µM (inactive) | 53.6 µM (inactive) | > 100 µM (inactive) |  |  |  | 72.9 µM (inactive) | 59.2 µM (inactive) | 54.6 µM (inactive) | > 100 µM (inactive)
C/C(=N\c1ccc(N(C)C)cc1)c1ccccc1 | 15.9 µM (inactive) |  |  | 21.9 µM (inactive) | 21.7 µM (inactive) | 17.8 µM (inactive) | 25.7 µM (inactive) | 25.1 µM (inactive) | > 100 µM (inactive) | 34.9 µM (inactive) | 18.9 µM (inactive) | 31.9 µM (inactive) | 17.4 µM (inactive) | > 100 µM (inactive) |  | 56 µM (inactive) | 31.8 µM (inactive) | 17.7 µM (inactive) | 22.1 µM (inactive)
